# Key:
# [1] = system: Amaranthus palmeri plants (Palmer amaranth A3); experiment: Tiling test of pooled trigger molecules to ALS large subunit gene, followed by Staple; visual injury; format: in vivo
# Method: Approximately four-week old (3-4 inches tall) greenhouse grown Amaranthus palmeri plants (Palmer amaranth A3) were used in these assays. The plants were spray treated in a greenhouse with the ALStile composition, each composition having six trigger oligonucleotides (Table 3) and a formulation comprising 1 percent Silwet L-77 solution, 2 percent ammonium sulfate and 20 mM sodium phosphate and the concentration of each oligonucleotide was approximately 4 nmol. Spray solutions were prepared the same day as spraying and applied using a track sprayer with a FLATfan nozzle 9501E at 165 psi (pounds/square inch) at a rate of 93 g/ha (grams/hectare). The dsDNA ALStile pool oligonucleotide composition was applied and followed 24 hours later by the herbicide treatment, Staple® (2-Chloro-6-{(4,6-dimethoxy-2-pyrimidinyl)thio}benzoic acid sodium salt, pyrithiobac sodium 85 percent, Dupont, Wilmington, Del.) at 108 g/ha (grams per hectare), five replications per treatment and the data is presented as a visual score of percentage injury determined fourteen days after herbicide application.
# [2] = system: ALS inhibitor resistant Palmer amaranth plants (A3, ALS inhibitor herbicide biotype); experiment: ALS_pro_S1 trigger followed by Staple or Classic herbicide on ALS inhibitor resistant plants; format: in vivo, Amaranthus palmeri; conditions: dsDNA trigger, FIG. 2
# Method: Thus, ssDNA ALS2 oligonucleotide treatment followed by Staple® at 1 h and 24 h caused 50 percent and 60 percent growth reduction, relative to the untreated control, while Staple® alone at 27 (1 h and 24 h) and 108 (24 h) g ai/ha caused 35 percent, 30 percent, and 40 percent growth reduction, respectively. […] ALS_pro 51 dsDNA trigger molecule was applied to ALS inhibitor resistant Palmer amaranth plants (A3, ALS inhibitor herbicide biotype) followed by ALS inhibitor herbicides 1× Staple® at 108 g ai/ha or 2× Classic® (Chlorimuron Ethyl 25DF, Dupont, Willmington, Del., 2× rate is 70 g ai/ha) at +COC (crop oil concentrate) 24 hr after trigger application.
# [3] = system: Amaranthus palmeri plants (glyphosate-resistant Palmer amaranth, "R-22"); experiment: Topical ssDNA ALS2 promoter oligonucleotide pool followed by Staple herbicide; plant height; format: in vivo; conditions: testing repeated with individual oligonucleotides
# Method: In this example, growing Amaranthus palmeri plants were treated with a topically applied composition for inducing modulation of a target gene in a plant including (a) an agent for conditioning of a plant to transfer of the polynucleotides and (b) polynucleotides including at least one ssDNA polynucleotide strand including at least one segment of 18-21 contiguous nucleotides of the target gene in sense (S) orientation. […]
# Approximately four-week old greenhouse grown Amaranthus palmeri plants (glyphosate-resistant Palmer amaranth, “R-22”) were used in this assays. […] The ssDNA ALS2 oligonucleotide composition was applied and followed 24 hours later by the herbicide treatment, Staple® (2-Chloro-6-{(4,6-dimethoxy-2-pyrimidinyl)thio}benzoic acid sodium salt, pyrithiobac sodium 85 percent, Dupont, Wilmington, Del.) at ¼×(27 g ai/ha (grams active ingredient per hectare) rate for the ssDNA ALS2 oligonucleotide treated plants and 1× rate (108 g ai/ha) for the untreated plants, five replications per treatment and the data is presented as percentage height of the untreated control. Plant height is determined at seven days after herbicide treatment.
# [4] = trigger pool (about 4 nmol each) or formulation, Staple @ 108 g/ha 24 h later, 14 days after herbicide, A3
substance,measurement,setting,value
"ALSpro_S1: trigger TCTTCTCCGACTCTCACAA, SEQ ID NO:4202; ssDNA in Table 2, dsDNA in b81, dsRNA in Table 3 (chemistry not fully specified; listed as Amaranthus palmeri)",herbicide enhancing activity relative to the formulation control,"[1]; A3 biotype, Staple @ 108 g/ha",herbicide enhancing activity
same,"visual score of percentage injury, avg","[1]; average of five replications, trigger pool or formulation, Staple @ 108 g/ha 24 h later, 14 days after herbicide, A3",100%
same,"visual score of percentage injury, Rep1",[1]; [4],100%
same,"visual score of percentage injury, Rep2",[1]; [4],100%
same,"visual score of percentage injury, Rep3",[1]; [4],100%
same,"visual score of percentage injury, Rep4",[1]; [4],100%
same,"visual score of percentage injury, Rep5",[1]; [4],100%
same,improvement of herbicide activity on ALS inhibitor resistant plants,[2]; then 1x Staple at 108 g ai/ha 24 hr after trigger,substantially improved the activity
same,improvement of herbicide activity on ALS inhibitor resistant plants,[2]; then 2x Classic (70 g ai/ha) + COC 24 hr after trigger,substantially improved the activity
same,ALS inhibitor herbicide enhancing activity of the individual trigger molecule,[3],effective trigger molecule

# From patent publication US20130067618A1, “METHODS AND COMPOSITIONS FOR WEED CONTROL” (priority 2011, published 2013)
